Reference: the Deep4Chem optical property database
Blank lines part the entries; values can stand above or below the compound they belong to.

Test: solvent given as SMILES

SMILES: CN1CCN(CCCN2c3ccccc3Sc3ccc(C(F)(F)F)cc32)CC1
- fluorescence lifetime (in CC#N): 2.68 ns
- fluorescence lifetime (in CO): 2.52 ns
- fluorescence lifetime (in O): 3.01 ns

SMILES: NS(=O)(=O)c1ccc(N2N=C(c3ccc(O)cc3)CC2c2ccc(Br)cc2)cc1 (configuration not stated)
- fluorescence lifetime (in C1CCOC1): 2.25 ns
- fluorescence lifetime (in C1COCCO1): 2.17 ns
- fluorescence lifetime (in CC#N): 2.2 ns
- fluorescence lifetime (in CC(C)O): 1.98 ns
- fluorescence lifetime (in CCO): 1.84 ns
- fluorescence lifetime (in CCOC(C)=O): 2.18 ns
- fluorescence lifetime (in CN(C)C=O): 2.12 ns
- fluorescence lifetime (in CO): 1.67 ns
- fluorescence lifetime (in CS(C)=O): 2 ns
- fluorescence lifetime (in O): 3.07 ns

SMILES: N[C@@H](Cc1ccc(O)cc1)C(=O)O
- fluorescence lifetime (in O): 3.27 ns

SMILES: c1ccc(C(=C(c2ccccc2)c2ccc(-c3ccc(-c4nc5c(-c6ccc(-c7ccc(C(=C(c8ccccc8)c8ccccc8)c8ccccc8)cc7)cc6)sc(-c6ccc(-c7ccc(C(=C(c8ccccc8)c8ccccc8)c8ccccc8)cc7)cc6)c5nc4-c4ccc(-c5ccc(C(=C(c6ccccc6)c6ccccc6)c6ccccc6)cc5)cc4)cc3)cc2)c2ccccc2)cc1
- fluorescence lifetime (in ClCCl): 6.7 ns

SMILES: FC(F)(F)c1ccc(C2=CC3=c4cc(-c5ccc(C(F)(F)F)cc5)c5nc(C(F)(F)C(F)(F)C(F)(F)F)nc6c(-c7ccc(C(F)(F)F)cc7)cc(c4c65)C4=CC(c5ccc(C(F)(F)F)cc5)=C5N=C(C(F)(F)C(F)(F)C(F)(F)F)N=C2C5C43)cc1 (configuration not stated)
- fluorescence lifetime (in C1CCOC1): 2.8 ns

SMILES: COc1cc2c(cc1/C=C/C(=C(C#N)C#N)c1ccccc1)c1ccccc1n2C
- fluorescence lifetime (in C1CCOC1): 7.35 ns
- fluorescence lifetime (in CC#N): 7.64 ns
- fluorescence lifetime (in CCO): 5.52 ns
- fluorescence lifetime (in CCOC(C)=O): 6.74 ns
- fluorescence lifetime (in CN(C)C=O): 7.2 ns
- fluorescence lifetime (in CS(C)=O): 9.07 ns
- fluorescence lifetime (in Cc1ccccc1): 7.98 ns
- fluorescence lifetime (in ClC(Cl)Cl): 8.11 ns
- fluorescence lifetime (in ClCCl): 6.44 ns

SMILES: Nc1cc(N)cc(-c2nc3ccccc3s2)c1
- fluorescence lifetime (in C1CCCCC1): 4.63 ns
- fluorescence lifetime (in C1COCCO1): 4.09 ns
- fluorescence lifetime (in CC#N): 4.14 ns
- fluorescence lifetime (in CC(C)O): 6.4 ns
- fluorescence lifetime (in CCOC(C)=O): 3.84 ns
- fluorescence lifetime (in CCOCC): 3.2 ns
- fluorescence lifetime (in CO): 2.07 ns
- fluorescence lifetime (in O): 1.32 ns

SMILES: CCCCCCCCCCCCCCCCN(CCCCCCCCCCCCCCCC)c1ccc(/C=C/c2cc[n+](Cc3cc(C[n+]4ccc(/C=C/c5ccc(N(CCCCCCCCCCCCCCCC)CCCCCCCCCCCCCCCC)cc5)cc4)cc(C[n+]4ccc(/C=C/c5ccc(N(CCCCCCCCCCCCCCCC)CCCCCCCCCCCCCCCC)cc5)cc4)c3)cc2)cc1
- fluorescence lifetime (in CCCCCCCCO): 0.8 ns
- fluorescence lifetime (in CCO): 0.17 ns
- fluorescence lifetime (in CO): 0.11 ns
- fluorescence lifetime (in ClC(Cl)Cl): 0.92 ns
- fluorescence lifetime (in ClCCl): 0.74 ns

SMILES: COC(=O)C(NC(=O)OC(C)(C)C)c1ccc2oc(-c3cc(OC)c(OC)cc3OC)nc2c1 (configuration not stated)
- fluorescence lifetime (in CC1CCCCC1): 1.27 ns
- fluorescence lifetime (in CC#N): 1.78 ns
- fluorescence lifetime (in CO): 2.03 ns

SMILES: Cc1cc(C#Cc2ccccc2)c2ccc3c(C#Cc4ccccc4)cc(C#Cc4ccccc4)c4ccc1c2c43
- fluorescence lifetime (in CS(C)=O): 1.89 ns
- fluorescence lifetime (in ClC(Cl)(Cl)Cl): 1.57 ns

SMILES: COc1cc(/C=C/c2nc(N3CCOCC3)c3c([n+]2[O-])CCCC3)cc(OC)c1OC
- fluorescence lifetime (in ClCCl): 8.5 ns

SMILES: COC(=O)c1cc(=O)n(C)c2cc(-c3ccccc3N(C)C)sc12
- fluorescence lifetime (in ClCCl): 1.23 ns

SMILES: Cc1cc2ccccc2cc1C
- fluorescence lifetime (in C1CCCCC1): 133 ns

SMILES: CCCCCCCCN1c2ccccc2Sc2cc(/C=C/c3ccc(N(c4ccc(/C=C/c5ccc6c(c5)Sc5ccccc5N6CCCCCCCC)cc4)c4ccc(/C=C/c5ccc(/C=C/c6ccc(N(c7ccc(/C=C/c8ccc(N(c9ccccc9)c9ccccc9)cc8)cc7)c7ccc(/C=C/c8ccc(N(c9ccccc9)c9ccccc9)cc8)cc7)cc6)c6nsnc56)cc4)cc3)ccc21
- fluorescence lifetime (in C1CCOC1): 1.76 ns
- fluorescence lifetime (in CCOC(C)=O): 1.79 ns
- fluorescence lifetime (in Cc1ccccc1): 3.49 ns
- fluorescence lifetime (in ClC(Cl)Cl): 2.38 ns
- fluorescence lifetime (in ClCCl): 1.75 ns

SMILES: COc1ccc(-c2oc3cccc4c5c(-c6ccc(OC)c(OC)c6)c(=N)oc6cccc(c2c34)c65)cc1OC
- fluorescence lifetime (in ClC(Cl)Cl): 1.9 ns

SMILES: COc1nnc(Cl)nn1
- fluorescence lifetime (in ClCCl): 160 ns

SMILES: CCOC(=O)CCCCCn1c2ccc(F)cc2c(=O)c2cc3c(cc21)c(=O)c1cc(F)ccc1n3CCCCCC(=O)OCC
- fluorescence lifetime (in CO): 22.7 ns

SMILES: COc1ccc2nc3c(nc2c1)c(-c1ccccc1)nn3C
- fluorescence lifetime (in C1CCCCC1): 5.37 ns
- fluorescence lifetime (in C1CCOC1): 12.4 ns
- fluorescence lifetime (in CC#N): 16.7 ns

Results, then the compound that gave them:

- fluorescence lifetime (in ClCCl): 1.5 ns
SMILES: O=S1(=O)c2ccccc2C2(c3cc(-c4ccc(N(c5ccccc5)c5ccccc5)cc4)ccc3-c3ccc(-c4ccc(N(c5ccccc5)c5ccccc5)cc4)cc32)c2ccccc21

- fluorescence lifetime (in CC1CCCCC1): 0.65 ns
SMILES: c12c3c4c5c1c1c6c7c2c2c8c3c3c9c4c4c%10c5c5c1c1c6c6c%11c%12c%13c%14c%15c%16c%17c%14c%14c%18c%13c%11c1c1c5c%10c5c(c%14c%10c%17c%11c%13c%16c%14c%16c%15c%12c%12c%16c(c2c7c%126)c2c8c3c(c%13c%142)c2c9c4c5c%10c%112)c%181

- fluorescence lifetime (in CO): 29 ns
SMILES: Oc1cc2ccc3cc(O)cc4ccc(c1)c2c34

- fluorescence lifetime (in CCCO): 7.8 ns
SMILES: CCOC(=O)c1ccc2c(c1)n(C)c1c3ccc(C(=O)OCC)cc3n(C)c21

- fluorescence lifetime (in ClCCl): 0.36 ns
SMILES: CCN(CC)c1ccc2cc(/C=C3\CCCc4c3[o+]c3cc(N(CC)CC)ccc3c4-c3ccccc3C(=O)O)c(=O)oc2c1

- fluorescence lifetime (in ClCCl): 5.2 ns
SMILES: F[B-]1(F)n2c(c3ccccc3c2-c2ccccc2)C(c2ccccc2)=C2c3ccccc3C(c3ccccc3)=[N+]21

- fluorescence lifetime (in ClC(Cl)Cl): 4 ns
SMILES: Cc1ccc(/C2=c3\cc/c(o3)=C(\c3ccc(C)cc3)c3ccc([nH]3)-c3ccc4n3[P-](=O)(=O)[N+]3=C(C=CC3=C4c3ccc[nH]3)c3ccc2[nH]3)cc1

- fluorescence lifetime (in ClC(Cl)Cl): 4.2 ns
SMILES: CCCCCCCCn1c(=O)c2cc3cc4cc5c(=O)n(CCCCCCCC)c(=O)c5cc4c(C#Cc4ccc(N(c5ccccc5)c5ccccc5)cc4)c3cc2c1=O

- fluorescence lifetime (in C1CCCCC1): 2.6 ns
- fluorescence lifetime (in ClCCl): 2.6 ns
SMILES: CC(C)[Si]1(C(C)C)c2cc(C#N)ccc2-c2ccc(N(C)C)cc21
